Test results from US9987255B2, “5,5-bicyclic oxazole orexin receptor antagonists” (Merck Sharp & Dohme Corp., priority 2014, dated 2018).

Columns and labels:
[1] = target: human orexin-2 receptor (hOX2R) (Homo sapiens (Human), UniProt O43614); test: FLIPR Ca2+ flux assay, orexin-2 receptor; format: cell-based; settings: CHO cells expressing the receptor; agonist 70 pM Ala-6,12 orexin-A
Experimental: The utility of the compounds in accordance with the present invention as orexin receptor OX1R and/or OX2R antagonists may be readily determined without undue experimentation by methodology well known in the art, including the “FLIPR Ca^2+ Flux Assay” (Okumura et al., Biochem. Biophys. Res. Comm. 280:976-981, 2001). In a typical experiment the OX1 and OX2 receptor antagonistic activity of the compounds of the present invention was determined in accordance with the following experimental method. For intracellular calcium measurements, Chinese hamster ovary (CHO) cells expressing the rat orexin-1 receptor or the human orexin-2 receptor, are grown in Iscove's modified DMEM containing 2 mM L-glutamine, […], 1% hypoxanthine-thymidine supplement, 100 U/ml penicillin, 100 μg/ml streptomycin and 10% heat-inactivated fetal calf serum (FCS). The cells are seeded at 20,000 cells/well into Becton-Dickinson black 384-well clear bottom sterile plates coated with poly-D-lysine. All reagents were from GIBCO-Invitrogen Corp. The seeded plates are incubated overnight at 37° C. and 5% CO2. Ala-6,12 human orexin-A as the agonist is prepared as a 1 mM stock solution in 1% bovine serum albumin (BSA) and diluted in assay buffer (HBSS containing 20 mM HEPES, 0.1% BSA and 2.5 mM probenecid, pH7.4) for use in the assay at a final concentration of 70 pM. Test compounds are prepared as 10 mM stock solution in DMSO, then diluted in 384-well plates, first in DMSO, then assay buffer. On the day of the assay, cells are washed 3 times with 100 μl assay buffer and then incubated for 60 min (37° C., 5% CO2) in 60 μl assay buffer containing 1 μM Fluo-4AM ester, 0.02% pluronic acid, and 1% BSA. The dye loading solution is then aspirated and cells are washed 3 times with 100 μl assay buffer. 30 μl of that same buffer is left in each well. Within the Fluorescent Imaging Plate Reader (FLIPR, Molecular Devices), test compounds are added to the plate in a volume of 25 μl, incubated for 5 min and finally 25 μl of agonist is added. Fluorescence is measured for each well at 1 second intervals for 5 minutes and the height of each fluorescence peak is compared to the height of the fluorescence peak induced by 70 pM Ala-6,12 orexin-A with buffer in place of antagonist. For each antagonist, IC50 value (the concentration of compound needed to inhibit 50% of the agonist response) is determined. Alternatively, compound potency can be assessed by a radioligand binding assay (described in Bergman et. al. Bioorg. Med. Chem. Lett. 2008, 18, 1425-1430) in which the inhibition constant (Ki) is determined in membranes prepared from CHO cells expressing either the OX1 or OX2 receptor. The intrinsic orexin receptor antagonist activity of a compound which may be used in the present invention may be determined by these assays.

hOX1R = hOX1R (Homo sapiens, UniProt O43613); test: FLIPR Ca2+ flux assay, orexin-1 receptor; format: cell-based; settings: CHO cells expressing the receptor; agonist 70 pM Ala-6,12 orexin-A

Sequence of human orexin-2 receptor (hOX2R) (O43614 whole entry): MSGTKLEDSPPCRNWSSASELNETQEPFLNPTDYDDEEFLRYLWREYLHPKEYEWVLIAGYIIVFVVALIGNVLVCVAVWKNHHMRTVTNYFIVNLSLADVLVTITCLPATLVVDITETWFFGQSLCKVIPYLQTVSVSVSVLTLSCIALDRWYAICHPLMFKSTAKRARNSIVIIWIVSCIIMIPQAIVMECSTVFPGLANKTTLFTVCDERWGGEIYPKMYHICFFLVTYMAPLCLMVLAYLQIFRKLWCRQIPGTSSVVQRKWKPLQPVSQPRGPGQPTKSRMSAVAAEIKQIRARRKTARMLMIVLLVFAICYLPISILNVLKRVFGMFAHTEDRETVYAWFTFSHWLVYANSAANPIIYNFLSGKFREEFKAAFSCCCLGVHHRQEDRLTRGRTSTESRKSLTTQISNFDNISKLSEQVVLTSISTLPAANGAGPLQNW

Cc1oc(N2CC3CN(C(=O)c4ccccc4-n4nccn4)CC3C2)nc1C(C)(C)O (stereo not drawn) [Example 1, (2-(2H-1,2,3-triazol-2-yl)phenyl)(5-(4-(2-hydroxypropan-2-yl)-5-methyloxazol-2-yl)hexahydropyrrolo[3,4-c]pyrrol-2(1H)-yl)methanone]
IC50 [1]: 0.027 µM
IC50 (hOX1R): 6.88 µM

CCOc1ncccc1C(=O)N1CC2CN(c3nc(C(C)(C)O)c(C)o3)CC2C1 (stereo not drawn) [Example 2, 2-(2-{5-[(2-Ethoxypyridin-3-yl)carbonyl]hexahydropyrrolo[3,4-c]pyrrol-2(1H)-yl}-5-methyl-1,3-oxazol-4-yl)propan-2-ol]
IC50 [1]: 0.545 µM
IC50 (hOX1R): > 10 µM

Cc1oc(N2CC3CN(C(=O)c4cccnc4OCC(F)(F)F)CC3C2)nc1C(C)(C)O (stereo not drawn) [Example 3, 2-{5-methyl-2-[5-{[2-(2,2,2-trifluoroethoxy)pyridin-3-yl]carbonyl}hexahydropyrrolo [3,4-c]pyrrol-2(1H)-yl]-1,3-oxazol-4-yl}propan-2-ol]
IC50 [1]: 0.106 µM
IC50 (hOX1R): > 10 µM

Cc1oc(N2CC3CN(C(=O)c4ccccc4OC(F)(F)F)CC3C2)nc1C(C)(C)O (stereo not drawn) [Example 4, 2-{5-methyl-2-[5-{[2-(trifluoromethoxy)phenyl]carbonyl}hexahydropyrrolo[3,4-c]pyrrol-2(1H)-yl]-1,3-oxazol-4-yl} propan-2-ol]
IC50 [1]: 0.604 µM
IC50 (hOX1R): > 10 µM

Cc1oc(N2CC3CN(C(=O)c4ncccc4-c4ccccc4)CC3C2)nc1C(C)(C)O (stereo not drawn) [Example 5, 2-(5-methyl-2-{5-[(3-phenylpyridin-2-yl)carbonyl]hexahydropyrrolo[3,4-c]pyrrol-2(1H)-yl}-1,3-oxazol-4-yl) propan-2-ol]
IC50 [1]: 0.583 µM
IC50 (hOX1R): > 10 µM

CCCc1ccccc1C(=O)N1CC2CN(c3nc(C(C)(C)O)c(C)o3)CC2C1 (stereo not drawn) [Example 6, 2-(5-methyl-2-{5-[(2-propylphenyl)carbonyl]hexahydropyrrolo[3,4-c]pyrrol-2(1H)-yl}-1,3-oxazol-4-yl)propan-2-ol]
IC50 [1]: 0.032 µM
IC50 (hOX1R): > 10 µM

Cc1oc(N2CC3CN(C(=O)c4ccccc4OCC(F)(F)F)CC3C2)nc1C(C)(C)O (stereo not drawn) [Example 7, 2-{5-methyl-2-[5-{[2-(2,2,2-trifluoroethoxy)phenyl]carbonyl}hexahydropyrrolo[3,4-c]pyrrol-2(1H)-yl]-1,3-oxazol-4-yl} propan-2-ol]
IC50 [1]: 0.165 µM
IC50 (hOX1R): > 10 µM

Cc1oc(N2CC3CN(C(=O)c4cccnc4OC(C)C)CC3C2)nc1C(C)(C)O (stereo not drawn) [Example 8, 2-{5-methyl-2-[5-{[2-(1-methylethoxy)pyriddin-3-yl]carbonyl}hexahydropyrrolo [3,4-c]pyrrol-2(1H)-yl]-1,3-oxazol-4-yl}propan-2-ol]
IC50 [1]: 0.126 µM
IC50 (hOX1R): > 10 µM

Cc1oc(N2CC3CN(C(=O)c4cccnc4OCC(F)F)CC3C2)nc1C(C)(C)O (stereo not drawn) [Example 9, 2-{2-[5-{[2-(2,2-difluoroethoxy)pyridin-3-yl]carbonyl}hexahydropyrrolo [3,4-c]pyrrol-2(1H)-yl]-5-methyl-1,3-oxazol-4-yl} propan-2-ol]
IC50 [1]: 0.312 µM
IC50 (hOX1R): > 10 µM

Cc1oc(N2CC3CN(C(=O)c4cccnc4CC(F)(F)F)CC3C2)nc1C(C)(C)O (stereo not drawn) [Example 10]
IC50 [1]: 0.046 µM
IC50 (hOX1R): > 10 µM

Cc1oc(N2CC3CN(C(=O)c4ccccc4C4CC4)CC3C2)nc1C(C)(C)O (stereo not drawn) [Example 11, 2-(2-{5-[(2-cyclopropylphenyl)carbonyl]hexahydropyrrolo[3,4-c]pyrrol-2(1H)-yl}-5-methyl-1,3-oxazol-4-yl)propan-2-ol]
IC50 [1]: 0.087 µM
IC50 (hOX1R): > 10 µM

Cc1oc(N2CC3CN(C(=O)c4ccccc4C4CCC4)CC3C2)nc1C(C)(C)O (stereo not drawn) [Example 12, 2-(2-{5-[(2-cyclobutylphenyl)carbonyl]hexahydropyrrolo[3,4-c]pyrrol-2(1H)-yl}-5-methyl-1,3-oxazol-4-yl)propan-2-ol]
IC50 [1]: 0.023 µM
IC50 (hOX1R): 5.3 µM

Cc1oc(N2CC3CN(C(=O)c4ccccc4N4CCCC4)CC3C2)nc1C(C)(C)O (stereo not drawn) [Example 13, 2-(5-methyl-2-{5-[(2-pyrrolidin-1-ylphenyl)carbonyl]hexahydropyrrolo [3,4-c]pyrrol-2(1H)-yl}-1,3-oxazol-4-yl)propan-2-ol]
IC50 [1]: 0.049 µM
IC50 (hOX1R): > 10 µM

Cc1oc(N2CC3CN(C(=O)c4ccccc4-n4cccn4)CC3C2)nc1C(C)(C)O (stereo not drawn) [Example 14, 2-{5-methyl-2-[5-{(2-(1H-pyrazol-1-yl)phenyl]carbonyl}hexahydropyrrolo [3,4-c]pyrrol-2(1H)-yl]-1,3-oxazol-4-yl}propan-2-ol]
IC50 [1]: 0.072 µM
IC50 (hOX1R): > 10 µM

Cc1oc(N2CC3CN(C(=O)c4ccccc4-n4ncnn4)CC3C2)nc1C(C)(C)O (stereo not drawn) [Example 15, 2-{5-methyl-2-[5-{[2-(2H-tetrazol-2-yl)phenyl]carbonyl}hexahydropyrrolo [3,4-c]pyrrol-2(1H)-yl]-1,3-oxazol-4-yl}propan-2-ol]
IC50 [1]: 0.065 µM
IC50 (hOX1R): > 10 µM

Cc1oc(N2CC3CN(C(=O)c4ccc(F)cc4-n4nccn4)CC3C2)nc1C(C)(C)O (stereo not drawn) [Example 16, 2-{2-[5-{[4-fluoro-2-(2H-1,2,3-triazol-2-yl)phenyl]carbonyl}hexahydropyrrolo [3,4-c]pyrrol-2(1H)-yl]-5-methyl-1,3-oxazol-4-yl}propan-2-ol]
IC50 [1]: 0.032 µM
IC50 (hOX1R): 3.07 µM

Cc1oc(N2CC3CN(C(=O)c4ncccc4-n4nccn4)CC3C2)nc1C(C)(C)O (stereo not drawn) [Example 17, 2-{5-methyl-2-[5-{(3-(2H-1,2,3-triazol-2-yl)pyridin-2-yl]carbonyl}hexahydropyrrolo[3,4-c]pyrrol-2(1H)-yl]-1,3-oxazol-4-yl}propan-2-ol]
IC50 [1]: 0.084 µM
IC50 (hOX1R): > 10 µM

Cc1oc(N2CC3CN(C(=O)c4cccnc4-n4cccn4)CC3C2)nc1C(C)(C)O (stereo not drawn) [Example 18, 2-{5-methyl-2-[5-{[2-(1H-pyrazol-1-yl)pyridin-3-yl]carbonyl}hexahydropyrrolo [3,4-c]pyrrol-2(1H)-yl]-1,3-oxazol-4-yl}propan-2-ol]
IC50 [1]: 0.035 µM
IC50 (hOX1R): 9.85 µM

Cc1oc(N2CC3CN(C(=O)c4cccnc4-c4ccccc4)CC3C2)nc1C(C)(C)O (stereo not drawn) [Example 19, 2-(5-methyl-2-{5-[(2-phenylpyridin-3-yl)carbonyl]hexahydropyrrolo [3,4-c]pyrrol-2(1H)-yl}-1,3-oxazol-4-yl)propan-2-ol]
IC50 [1]: 0.06 µM
IC50 (hOX1R): > 10 µM

Cc1oc(N2CC3CN(C(=O)c4nccnc4N4CCCC4)CC3C2)nc1C(C)(C)O (stereo not drawn) [Example 20, 2-(5-methyl-2-{5-[(3-pyrrolidin-1-ylpyrazin-2-yl)carbonyl]hexahydropyrrolo[3,4-c]pyrrol-2(1H)-yl}-1,3-oxazol-4-yl) propan-2-ol]
IC50 [1]: 0.252 µM
IC50 (hOX1R): > 10 µM

Cc1oc(N2CC3CN(C(=O)c4nccnc4-n4cccn4)CC3C2)nc1C(C)(C)O (stereo not drawn) [Example 21, 2-{5-methyl-2-[5-{[3-(1H-pyrazol-1-yl)pyrazin-2-yl]carbonyl}hexahydropyrrolo[3,4-c]pyrrol-2(1H)-yl]-1,3-oxazol-4-yl} propan-2-ol]
IC50 [1]: 0.112 µM
IC50 (hOX1R): > 10 µM

Cc1oc(N2CC3CN(C(=O)c4ccccc4OC(F)F)CC3C2)nc1C(C)(C)O (stereo not drawn) [Example 22, 2-{2-[5-{[2-(difluoromethoxy)phenyl]carbonyl}hexahydropyrrolo[3,4-c]pyrrol-2(1H)-yl]-5-methyl-1,3-oxazol-4-yl} propan-2-ol]
IC50 [1]: 0.101 µM
IC50 (hOX1R): > 10 µM

Cc1oc(N2CC3CN(C(=O)c4ccccc4CC(F)(F)F)CC3C2)nc1C(C)(C)O (stereo not drawn) [Example 23, 2-{5-methyl-2-[5-{(2-(2,2,2-trifluoroethyl)phenyl]carbonyl}hexahydropyrrolo[3,4-c]pyrrol-2(1H)-yl]-1,3-oxazol-4-yl} propan-2-ol]
IC50 [1]: 0.23 µM
IC50 (hOX1R): > 10 µM

Cc1oc(N2CC3CN(C(=O)c4ccccc4C4CC4(F)F)CC3C2)nc1C(C)(C)O (stereo not drawn) [Example 24, 2-{2-[5-{[2-(2,2-difluorocyclopropyl)phenyl]carbonyl}hexahydropyrrolo[3,4-c]pyrrol-2(1H)-yl]-5-methyl-1,3-oxazol-4-yl}propan-2-ol]
IC50 [1]: 0.022 µM
IC50 (hOX1R): > 10 µM
